Changes are numbered by the printed parent chain.
Tests used:
[1] = target: T1, glutamine synthetase mutant S52A (Escherichia coli, UniProt P0A9C5, S53A); experiment: HPLC forward-reaction glutamine synthetase assay with serine protease inhibitors; format: biochemical, E. coli; details: 1 mM inhibitor; for inhibition of the enzyme (in words): HPLC assays; for % Reduction in ADP-based Specific Activity / % Reduction in Glutamine-based Specific Activity: 60 min pre-incubation, vs no-inhibitor control, positive = activity increased; for % Conversion: glutamine-based divided by ADP-based specific activity
T1 construct: made in house; host or cells: E. coli YMC11 (glutamine synthetase auxotroph), pBluescript II SK+
T1 sequence (P0A9C5 2-469 S53A limits assumed): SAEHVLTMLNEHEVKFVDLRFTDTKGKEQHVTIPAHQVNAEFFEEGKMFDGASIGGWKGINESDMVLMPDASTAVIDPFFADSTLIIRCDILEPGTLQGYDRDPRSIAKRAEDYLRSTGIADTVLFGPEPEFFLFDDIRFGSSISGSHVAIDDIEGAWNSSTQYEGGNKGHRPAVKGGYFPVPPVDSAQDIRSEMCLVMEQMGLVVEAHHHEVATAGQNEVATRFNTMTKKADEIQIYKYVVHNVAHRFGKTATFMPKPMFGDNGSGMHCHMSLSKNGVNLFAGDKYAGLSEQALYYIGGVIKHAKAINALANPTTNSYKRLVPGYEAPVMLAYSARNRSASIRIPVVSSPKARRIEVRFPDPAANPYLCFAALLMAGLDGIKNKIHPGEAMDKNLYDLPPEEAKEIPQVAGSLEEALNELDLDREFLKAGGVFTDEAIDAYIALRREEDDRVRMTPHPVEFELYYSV
Procedure: (§1) This assay was set up to measure glutamine synthetase activity according to the forward reaction, and measures the amount of glutamine formed from […] of L-glutamate in the presence of MnCO3-ATP (the basis of one reaction) and MgATP (the basis of a second reaction). In addition, the amount of ADP formed is also measured in a separate assay, using the same reagents.
(§2) All enzyme preparations were adjusted to the same concentration of protein, and added to the assay mixture in a volume of 50 μl. The addition of the enzyme started the reaction, which was then allowed to proceed for 1 hour. The reaction was stopped by the addition of 6 μl of a 50% solution of trichloroacetic acid. Each assay was then aliquoted into 4 HPLC vials (150 μl per vial), two of which were assayed for glutamate and glutamine using a Phenomenex Luna 5 μC18 Column on an Agilent 100 HPLC instrument. The ATP/ADP assays were run on a Chromolith Performance RP-18c column also using an Agilent 100 HPLC instrument.
(§3) As it is believed that two putative catalytic triads, similar to those in the serine proteases, are involved in the reaction mechanism of glutamine synthetase, certain of the mutants were also assayed by HPLC in the presence of the serine protease inhibitors, AEBSF and PMSF, in order to assess the effect that these inhibitors had on the enzyme. The enzymes assessed were the adenylylated WT enzyme, the deadenylylated WT enzyme, and the mutant enzymes S52A, S52A Y397V, S53A, S53A Y397V, S52A S53A and S52A S53A Y397V. The enzymes were pre-incubated for 60 minutes in the presence of 1 mM PMSF or 1 mM AEBSF. A control reaction was set up for each enzyme, which contained no inhibitor. Each enzyme was then added to assays set up as described above. The assay was allowed to proceed for 60 minutes, then stopped by the addition of […] of 50% TCA, after which they were analysed by HPLC. All assays were run in triplicate.
(§4) In addition to the γ-glutamyl transferase assays, assays were also developed to measure the rate of conversion of ATP and glutamate to ADP and glutamine by HPLC. These were set up as single assays but analysed separately for glutamate and glutamine and ATP and ADP. The conversion rates for glutamate to glutamine, in both the presence of Mn^2+ and Mg^2+ by glutamine synthetase, is referred to as the […] specific activity and is presented in μmoles/min/mg protein. The conversion rates for ATP to ADP, in both the presence of Mn^2+ and Mg^2+ by glutamine synthetase, is referred to as the ADP-based specific activity and is presented in μmoles/min/mg protein. The percentage of conversion was also calculated by dividing the glutamine-based specific activity by the ADP-based specific activity, and this value is interpreted as the ability of the enzyme to complete both steps of the reaction, i.e., glutamate to glutamine and ATP to ADP, at an equivalent level of efficiency.

[2] = target: T2, glutamine synthetase mutant S53A Y397V (Escherichia coli, UniProt P0A9C5, S54A/Y398V); experiment: as above; format: biochemical, E. coli; details: 1 mM inhibitor; for % Reduction in ADP-based Specific Activity / % Reduction in Glutamine-based Specific Activity: 60 min pre-incubation, vs no-inhibitor control, positive = activity increased; for % Conversion: glutamine-based divided by ADP-based specific activity
T2 construct: made in house; host or cells: E. coli YMC11 (glutamine synthetase auxotroph), pBluescript II SK+
T2 sequence (P0A9C5 2-469 S54A/Y398V limits assumed): T1 sequence (P0A9C5 2-469 S53A limits assumed) with A52S, S53A, Y397V
Procedure: as §1, §2, §3, §4

Row | Structure (SMILES) | inhibition of the enzyme (in words) [1] | % Reduction in ADP-based Specific Activity ([1]; Mg assay) | % Reduction in Glutamine-based Specific Activity ([1]; Mg assay) | % Conversion ([1]; Mg assay) | % Reduction in ADP-based Specific Activity ([1]; Mn assay) | % Reduction in Glutamine-based Specific Activity ([1]; Mn assay) | % Conversion ([1]; Mn assay) | % Reduction in ADP-based Specific Activity ([2]; Mn assay) | % Reduction in Glutamine-based Specific Activity ([2]; Mn assay) | % Conversion ([2]; Mn assay) | inhibition of the enzyme (in words) ([2]; HPLC assays) | % Reduction in ADP-based Specific Activity ([2]; Mg assay) | % Reduction in Glutamine-based Specific Activity ([2]; Mg assay)
1 | O=S(=O)(F)Cc1ccccc1 [PMSF] | found to inhibit | −19.51% | −43.54% | 59% | −13.41% | −39.84% | 64% | +39.67% | +6.07% | 63% | – | – | –
2 | NCCc1ccc(S(=O)(=O)F)cc1 [AEBSF] | appeared to cause inhibition | −31.77% | −10.61% | 109% | +30.66% | +15.27% | 81% | +14.80% | +5.16% | 75% | appeared to cause inhibition | −100.00% | −55.60%

From patent US20100022584A1, “Modulation of Glutamine Synthetase Activity” (priority 2006, published 2010)
